Source: patent US20090238808A1, “Process for the identification of novel enzyme interacting compounds” (priority 2005, published 2009)

What was measured:
[1] = system: phosphorylation sites on kinobeads-captured proteins, K562 cells; experiment: Phosphorylation analysis of kinobeads-captured proteins from drug-treated K562 cells; assay type: cell-based, human; conditions: of 379 sites on 136 proteins identified
Excerpt: To explore not only the direct targets of the drugs but also their downstream effects on signaling pathways, aliquots of the iTRAQ-labeled peptide mixtures from kinobeads precipitates were subjected to phosphopeptide enrichment and subsequent identification and quantification by mass spectrometry. […] Indeed, most of these proteins have been implicated in signaling events downstream of ABL (FIG. 10b)^16, 18. For all three drugs together, we found down-regulation of 20 sites on 13 proteins (FIGS. 22 and 23).
Mass Spectrometry and Data analysis.
LC-MS/MS for IMAC samples were performed twice.

KHS1 = KHS1 (Homo sapiens, UniProt Q9Y4K4); experiment: Biochemical kinase activity assay (Invitrogen SelectScreen); conditions: read-out: % inhibition, KHS1
MER = target: T1, MER (Homo sapiens, UniProt Q12866); experiment: as above; conditions: read-out: % inhibition, MER
T1 sequence (Q12866 21-999): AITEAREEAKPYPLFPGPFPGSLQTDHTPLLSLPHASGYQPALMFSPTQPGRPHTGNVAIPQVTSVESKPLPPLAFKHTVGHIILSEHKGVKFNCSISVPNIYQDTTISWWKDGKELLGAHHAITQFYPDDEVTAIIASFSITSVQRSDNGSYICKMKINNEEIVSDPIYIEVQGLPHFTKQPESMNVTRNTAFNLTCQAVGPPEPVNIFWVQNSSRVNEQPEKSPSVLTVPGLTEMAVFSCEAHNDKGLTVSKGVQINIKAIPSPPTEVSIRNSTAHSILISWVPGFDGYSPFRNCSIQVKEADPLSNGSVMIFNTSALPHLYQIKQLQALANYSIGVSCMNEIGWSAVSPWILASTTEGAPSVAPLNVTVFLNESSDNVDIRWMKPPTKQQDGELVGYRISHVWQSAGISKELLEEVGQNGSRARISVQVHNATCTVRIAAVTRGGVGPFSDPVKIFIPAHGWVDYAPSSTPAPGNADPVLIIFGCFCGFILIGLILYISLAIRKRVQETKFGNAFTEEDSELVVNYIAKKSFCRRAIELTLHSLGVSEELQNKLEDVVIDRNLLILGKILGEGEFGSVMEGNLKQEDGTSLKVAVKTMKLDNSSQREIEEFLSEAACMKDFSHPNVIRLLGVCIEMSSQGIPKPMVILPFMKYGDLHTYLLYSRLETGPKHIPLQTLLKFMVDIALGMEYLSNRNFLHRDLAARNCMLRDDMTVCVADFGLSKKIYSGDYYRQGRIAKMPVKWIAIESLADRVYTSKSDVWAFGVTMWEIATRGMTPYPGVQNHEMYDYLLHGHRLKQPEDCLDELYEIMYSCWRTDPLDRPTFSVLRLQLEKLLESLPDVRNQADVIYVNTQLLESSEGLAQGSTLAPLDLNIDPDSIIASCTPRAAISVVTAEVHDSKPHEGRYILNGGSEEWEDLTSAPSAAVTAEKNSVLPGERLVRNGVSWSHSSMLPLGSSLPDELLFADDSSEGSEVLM

FER = FER (Homo sapiens, UniProt P16591); experiment: as above; conditions: read-out: % inhibition, FER
BTK = BTK (Homo sapiens, UniProt Q06187); experiment: as above; conditions: read-out: % inhibition, BTK
FAK/PTK2 = FAK/PTK2 (Homo sapiens, UniProt Q05397); experiment: as above; conditions: read-out: % inhibition, FAK
GCK = GCK (Homo sapiens, UniProt Q12851); experiment: as above; conditions: read-out: % inhibition, GCK
EphB4 = EphB4 (Homo sapiens, UniProt P54760); experiment: as above; conditions: read-out: % inhibition, EphB4
EphB4, sequence (P54760 16-987): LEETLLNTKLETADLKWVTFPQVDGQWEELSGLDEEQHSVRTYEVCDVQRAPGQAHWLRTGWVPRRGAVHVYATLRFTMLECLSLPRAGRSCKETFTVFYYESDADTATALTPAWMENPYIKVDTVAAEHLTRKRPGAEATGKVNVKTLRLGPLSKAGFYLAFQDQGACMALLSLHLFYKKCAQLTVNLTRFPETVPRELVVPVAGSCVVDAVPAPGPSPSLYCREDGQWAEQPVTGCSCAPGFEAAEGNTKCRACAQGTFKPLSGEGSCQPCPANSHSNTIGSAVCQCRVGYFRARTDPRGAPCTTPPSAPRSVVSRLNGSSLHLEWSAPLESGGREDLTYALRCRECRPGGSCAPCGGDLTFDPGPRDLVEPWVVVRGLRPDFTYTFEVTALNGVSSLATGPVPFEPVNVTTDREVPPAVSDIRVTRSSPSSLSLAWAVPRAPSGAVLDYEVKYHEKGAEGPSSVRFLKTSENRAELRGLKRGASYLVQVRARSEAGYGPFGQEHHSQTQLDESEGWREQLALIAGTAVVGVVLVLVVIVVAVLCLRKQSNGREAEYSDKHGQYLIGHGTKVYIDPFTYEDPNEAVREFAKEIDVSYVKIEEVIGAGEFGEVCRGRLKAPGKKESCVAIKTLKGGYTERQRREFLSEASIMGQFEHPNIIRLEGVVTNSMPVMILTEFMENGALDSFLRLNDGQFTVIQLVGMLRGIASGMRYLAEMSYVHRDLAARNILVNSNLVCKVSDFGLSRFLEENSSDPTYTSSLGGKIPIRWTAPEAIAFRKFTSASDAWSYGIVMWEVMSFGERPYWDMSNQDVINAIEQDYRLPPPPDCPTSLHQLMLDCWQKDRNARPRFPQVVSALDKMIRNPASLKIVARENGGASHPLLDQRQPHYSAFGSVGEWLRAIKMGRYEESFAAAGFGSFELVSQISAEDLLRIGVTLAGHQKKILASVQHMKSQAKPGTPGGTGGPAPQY

FAK/PTK2, sequence (Q05397 whole entry): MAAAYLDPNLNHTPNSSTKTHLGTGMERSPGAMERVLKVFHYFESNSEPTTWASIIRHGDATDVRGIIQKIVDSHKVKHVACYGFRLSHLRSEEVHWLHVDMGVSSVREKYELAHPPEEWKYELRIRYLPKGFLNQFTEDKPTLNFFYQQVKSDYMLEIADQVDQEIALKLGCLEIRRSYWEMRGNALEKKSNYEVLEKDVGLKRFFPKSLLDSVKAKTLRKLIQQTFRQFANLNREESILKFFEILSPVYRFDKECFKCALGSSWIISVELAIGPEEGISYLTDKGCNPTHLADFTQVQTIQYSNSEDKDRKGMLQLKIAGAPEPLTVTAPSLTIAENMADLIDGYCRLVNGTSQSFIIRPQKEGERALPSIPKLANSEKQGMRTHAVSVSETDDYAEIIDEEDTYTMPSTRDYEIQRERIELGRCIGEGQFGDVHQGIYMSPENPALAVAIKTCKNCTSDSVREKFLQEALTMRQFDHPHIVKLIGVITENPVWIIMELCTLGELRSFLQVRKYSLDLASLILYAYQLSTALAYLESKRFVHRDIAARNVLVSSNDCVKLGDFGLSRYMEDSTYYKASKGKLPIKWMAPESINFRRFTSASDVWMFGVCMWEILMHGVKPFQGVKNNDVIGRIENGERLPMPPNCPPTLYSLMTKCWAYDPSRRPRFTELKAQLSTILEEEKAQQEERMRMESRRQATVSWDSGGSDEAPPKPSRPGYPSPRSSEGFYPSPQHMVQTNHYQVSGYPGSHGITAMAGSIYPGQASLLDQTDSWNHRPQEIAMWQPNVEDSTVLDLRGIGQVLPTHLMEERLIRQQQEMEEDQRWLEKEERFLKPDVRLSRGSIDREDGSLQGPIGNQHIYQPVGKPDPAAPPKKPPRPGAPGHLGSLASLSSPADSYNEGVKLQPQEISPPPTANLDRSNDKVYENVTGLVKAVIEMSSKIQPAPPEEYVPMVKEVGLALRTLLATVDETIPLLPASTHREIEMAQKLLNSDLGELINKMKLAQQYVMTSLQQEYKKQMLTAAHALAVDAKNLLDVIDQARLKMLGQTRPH
BTK, sequence (Q06187 whole entry): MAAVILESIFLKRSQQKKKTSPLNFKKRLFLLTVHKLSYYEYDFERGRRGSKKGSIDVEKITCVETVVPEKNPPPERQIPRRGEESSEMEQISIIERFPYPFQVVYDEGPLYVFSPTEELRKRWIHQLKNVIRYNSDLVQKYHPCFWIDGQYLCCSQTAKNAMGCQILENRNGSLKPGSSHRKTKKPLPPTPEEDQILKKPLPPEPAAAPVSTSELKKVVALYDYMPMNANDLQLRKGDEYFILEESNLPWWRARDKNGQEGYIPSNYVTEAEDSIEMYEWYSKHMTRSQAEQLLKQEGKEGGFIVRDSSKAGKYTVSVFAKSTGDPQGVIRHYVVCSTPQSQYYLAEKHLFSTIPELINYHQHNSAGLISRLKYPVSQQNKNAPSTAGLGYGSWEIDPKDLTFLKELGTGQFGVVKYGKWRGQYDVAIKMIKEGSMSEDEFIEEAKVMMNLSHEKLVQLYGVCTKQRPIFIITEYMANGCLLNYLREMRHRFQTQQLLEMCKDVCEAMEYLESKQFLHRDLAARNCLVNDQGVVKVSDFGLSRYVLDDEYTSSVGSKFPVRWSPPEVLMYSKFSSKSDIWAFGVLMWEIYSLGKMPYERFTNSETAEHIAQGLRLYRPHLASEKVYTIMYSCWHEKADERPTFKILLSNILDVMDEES
FER, sequence (P16591 whole entry): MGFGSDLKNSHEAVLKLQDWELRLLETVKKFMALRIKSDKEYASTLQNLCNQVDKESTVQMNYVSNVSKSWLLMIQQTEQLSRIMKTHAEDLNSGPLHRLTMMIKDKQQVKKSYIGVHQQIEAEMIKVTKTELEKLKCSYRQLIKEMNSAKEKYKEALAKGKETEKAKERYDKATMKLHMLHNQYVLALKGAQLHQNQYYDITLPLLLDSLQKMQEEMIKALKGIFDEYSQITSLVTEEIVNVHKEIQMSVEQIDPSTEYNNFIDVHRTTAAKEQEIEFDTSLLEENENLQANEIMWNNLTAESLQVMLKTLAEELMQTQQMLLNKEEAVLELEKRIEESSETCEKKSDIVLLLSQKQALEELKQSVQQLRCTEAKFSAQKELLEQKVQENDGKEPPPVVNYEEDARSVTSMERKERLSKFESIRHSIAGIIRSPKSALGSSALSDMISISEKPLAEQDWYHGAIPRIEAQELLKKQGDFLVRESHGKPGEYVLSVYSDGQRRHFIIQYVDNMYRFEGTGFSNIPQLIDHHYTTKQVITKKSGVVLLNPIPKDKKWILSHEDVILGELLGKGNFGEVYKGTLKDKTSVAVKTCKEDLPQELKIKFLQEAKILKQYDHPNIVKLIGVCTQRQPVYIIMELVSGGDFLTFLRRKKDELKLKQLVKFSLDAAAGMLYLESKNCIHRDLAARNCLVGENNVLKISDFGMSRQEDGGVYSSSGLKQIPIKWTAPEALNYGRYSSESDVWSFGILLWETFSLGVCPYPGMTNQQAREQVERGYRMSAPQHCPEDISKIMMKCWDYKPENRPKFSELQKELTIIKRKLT
KHS1, sequence (Q9Y4K4 whole entry): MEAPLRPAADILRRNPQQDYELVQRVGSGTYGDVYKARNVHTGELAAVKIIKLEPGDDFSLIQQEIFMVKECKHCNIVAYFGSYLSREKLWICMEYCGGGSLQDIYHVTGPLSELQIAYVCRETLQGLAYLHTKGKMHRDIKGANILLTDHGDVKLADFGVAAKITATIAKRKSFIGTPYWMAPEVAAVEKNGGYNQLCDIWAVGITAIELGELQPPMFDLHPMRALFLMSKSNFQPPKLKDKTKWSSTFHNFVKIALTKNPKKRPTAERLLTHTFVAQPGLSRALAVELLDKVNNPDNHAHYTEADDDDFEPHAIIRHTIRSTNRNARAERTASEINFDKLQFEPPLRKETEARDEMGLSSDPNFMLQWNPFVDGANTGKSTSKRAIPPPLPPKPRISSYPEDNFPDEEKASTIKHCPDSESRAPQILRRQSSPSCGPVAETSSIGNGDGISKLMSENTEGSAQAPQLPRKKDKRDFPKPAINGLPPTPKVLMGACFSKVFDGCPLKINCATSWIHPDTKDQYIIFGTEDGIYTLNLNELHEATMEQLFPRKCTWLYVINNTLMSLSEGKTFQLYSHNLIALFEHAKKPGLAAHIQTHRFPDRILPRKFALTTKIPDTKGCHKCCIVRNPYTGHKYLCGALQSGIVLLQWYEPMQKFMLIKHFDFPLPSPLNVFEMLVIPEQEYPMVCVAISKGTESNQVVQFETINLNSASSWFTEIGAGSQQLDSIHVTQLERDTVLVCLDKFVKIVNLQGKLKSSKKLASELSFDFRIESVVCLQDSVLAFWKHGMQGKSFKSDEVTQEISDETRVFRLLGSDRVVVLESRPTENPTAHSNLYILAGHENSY

Structure (SMILES): Cc1ccc(NC(=O)c2ccc(CN3CCN(C)CC3)cc2)cc1Nc1nccc(-c2cccnc2)n1 [imatinib]
- number of phosphorylation sites with substantial down-regulation [1]: Eight
- inhibition at 5 µM (KHS1): 14%
- inhibition at 5 µM (MER): 11%
- inhibition at 5 µM (FER): 14%
- inhibition at 5 µM (BTK): 4%
- inhibition at 5 µM (FAK/PTK2): 2%
- inhibition at 5 µM (GCK): 10%
- inhibition at 5 µM (EphB4): 5%
